The values below come from patent US20070275967A1, “Pyrazolinols” (BAYER CROPSCIENCE AKTIENGESELLSCHAFT, priority 2003, published 2007).

The structures appear in SMILES notation.

For one series, the system named is Meloidogyne incognita. The series is described as follows: Meloidogyne test (nematicidal action by gall formation on lettuce roots). Type of series: in vivo. Particulars: for nematicidal action (formation of galls): Meloidogyne incognita egg/larvae suspension, lettuce, sand, result in words; for pest or weed control at 20 ppm: Meloidogyne incognita, 336 h, active compound concentration 20 ppm, after 14 d, nematicidal action by gall formation, read-out: Effect in % after 14 d. Here is the method: Meloidogyne Test [table] To produce a suitable preparation of active compound, 1 part by weight of active compound is mixed with the stated amounts of solvent and emulsifier, and the concentrate is diluted with water to the desired concentration. Containers are filled with sand, solution of active compound, Meloidogyne incognita egg/larvae suspension and lettuce seeds. The lettuce seeds germinate and the plants develop. On the roots, galls are formed. After the desired period of time, the nematicidal action is determined in % by the formation of galls. 100% means that no galls were found; 0% means that the number of galls on the treated plants corresponds to that of the untreated control.

A short description of series [1]: logP determination by HPLC on reversed-phase column (EEC Directive 79/831 Annex V.A8). The conditions noted are these: reversed-phase C18 HPLC column; acidic range (pH 2.3), marked a); 0.1% aqueous phosphoric acid/acetonitrile gradient; reversed-phase C 18; 43° C. In kind it is physicochemical. The method in brief:
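Reversed-phase C18 HPLC at 43° C with 10–90% acetonitrile linear gradient, run at pH 2.3 (0.1% phosphoric acid) or pH 7.5 (0.01-molar phosphate buffer). logP derived from retention times by linear interpolation against unbranched alkan-2-ones (C3–C16) of known logP.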

Series [2] concerns Adults of Ctenocephalides felis. The series is described as follows: Test with cat fleas/oral uptake. In kind it is in vivo. The conditions noted are these: for Kill rate in % after 2 d: active compound concentration 100 ppm, oral uptake; for mortality of fleas: oral uptake from citrated cattle blood, at least 75% kill within 48 h judged effective, result in words. The protocol: Test with Cat Fleas/Oral Uptake
Ctenocephalides Felis (Oral)
To produce a suitable formulation, a suitable solution of active compound is prepared from 10 mg of active compound and 0.5 ml of DMSO. 10 μl of this formulation are added to 2 ml of citrated cattle blood and stirred.
20 unfed adult fleas (Ctenocephalides felis, strain “Georgi”) are placed into a chamber (Ø 5 cm) whose top and bottom are closed with gauze. A metal cylinder whose underside is covered with parafilm is placed onto the chamber. The cylinder contains the 2 ml of blood/active compound formulation which can be taken up by the fleas through the parafilm membrane. Whereas the blood is warmed to 37° C., the temperature in the area of the flea chambers is adjusted to room temperature. Controls are mixed with the same volume of DMSO, without addition of a compound.
After 24 h and 48 h, the mortality in % is determined.
Compounds which effect an at least 75% kill of the fleas within 48 h are judged to be effective.

Series [3] relates to caterpillars of the armyworm (Spodoptera frugiperda). The series is described as follows: Spodoptera frugiperda test (spray treatment). Type of series: in vivo. The protocol:
Spodoptera Frugiperda Test (Spray Treatment) [table] To produce a suitable preparation of active compound, 1 part by weight of active compound is mixed with, the stated amounts of solvents and emulsifier, and the concentrate is diluted with emulsifier-containing water to the desired concentration. Disks of corn leaves (Zea mays) are sprayed with a preparation of active compound of the desired concentration and, after they have dried, populated with caterpillars of the armyworm (Spodoptera frugiperda). After the desired period of time, the activity in % is determined. 100% means that all caterpillars have been killed; 0% means that none of the caterpillars have been killed.

In series [4] the test system is larvae of the mustard beetle (Phaedon cochleariae). The series is described as follows: Phaedon test (spray treatment). Type of series: in vivo. The conditions noted are these: for activity (kill of beetle larvae): Chinese cabbage disks sprayed, populated with Phaedon cochleariae larvae, result in words; for pest or weed control at 500 g/ha: Phaedon cochleariae, 168 h, active compound concentration 500 g/ha, after 7 d, spray treatment, read-out: Kill rate in % after 7 d. Here is the method:
Phaedon Test (Spray Treatment) [table] To produce a suitable preparation of active compound, 1 part by weight of active compound is mixed with the stated amounts of solvents and emulsifier, and the concentrate is diluted with emulsifier-containing water to the desired concentration. Disks of Chinese cabbage (Brassica pekinensis) are sprayed with a preparation of active compound of the desired concentration and, once they have dried, populated with larvae of the mustard beetle (Phaedon cochleariae). After the desired period of time, the activity in % is determined. 100% means that all beetle larvae have been killed; 0% means that none of the beetle larvae have been killed.

Series [5] has as its system greenhouse red spidermite (Tetranychus urticae). The series is described as follows: Tetranychus test (OP-resistant/spray treatment). Type of series: in vivo. Here is the method:
Tetranychus Test (OP-Resistant/Spray Treatment)
To produce a suitable preparation of active compound, 1 part by weight of active compound is mixed with the stated amounts of solvents and emulsifier, and the concentrate is diluted with emulsifier-containing water to the desired concentration.
Disks of bean leaves (Phaseolus vulgaris) which are infested by all stages of the greenhouse red spidermite (Tetranychus urticae) are sprayed with a preparation of active compound of the desired concentration.
After the desired period of time, the activity in % is determined. 100% means that all spidermites have been killed; 0% means that none of the spidermites have been killed.

A word on the chromatographic logP: it is a lipophilicity value derived from retention on a column. High values mean higher lipophilicity, low ones lower lipophilicity. As to `CCC1=NN(C(=S)Nc2ccc(OC)cc2)C(O)(C(F)(F)F)C1` (stereo not shown) [Example 14], in the series on Meloidogyne incognita, the “nematicidal action (formation of galls)” value is reported as “good activity” and the pest or weed control at 20 ppm came to 100%. In series [1], this compound yielded a chromatographic logP of 3.47.

In the case of `COc1ccc(NC(=S)N2N=C(C(C)C)CC2(O)C(F)(F)F)cc1` (stereo not shown) [Example 19], in the series with Meloidogyne incognita, the “nematicidal action (formation of galls)” value was “good activity” and the pest or weed control at 20 ppm was 100%. In series [1], this compound gave a chromatographic logP of 3.83.

Turning to `CC(C)C1=NN(C(=S)Nc2c(Cl)cccc2Cl)C(O)(C(F)(F)F)C1` (stereo not shown) [Example 29], in series [2], the “Kill rate in % after 2 d” value was 100% and the mortality of fleas entry is recorded as “good activity”. Also, the pest or weed control at 500 g/ha in series [3] (Spodoptera frugiperda, 168 h, active compound concentration 500 g/ha, after 7 d, spray treatment, read-out: Kill rate in % after 7 d) stood at 100%. In series [3] (corn leaf disks sprayed, populated with Spodoptera frugiperda caterpillars, result in words), the “activity (kill of caterpillars)” value was “good activity”. In series [1], this compound returned a chromatographic logP of 4. Also, in series [4], the “activity (kill of beetle larvae)” value is on record as “good activity” and the pest or weed control at 500 g/ha was 100%.

In the case of `CC(C)C1=NN(C(=S)Nc2ccc(Cl)cc2Cl)C(O)(C(F)(F)F)C1` (stereo not shown) [Example 34], in series [2], the “Kill rate in % after 2 d” value is listed as 100% and the mortality of fleas result is on record as “good activity”. Further, the chromatographic logP in series [1] is 4.91. Further, in series [4], the “activity (kill of beetle larvae)” value is “good activity” and the pest or weed control at 500 g/ha is 100%. Further, the pest or weed control at 500 g/ha in series [5] (Tetranychus urticae, 120 h, active compound concentration 500 g/ha, after 5 d, OP-resistant, spray treatment, read-out: Kill rate in % after 5 d) worked out at 100%. The “activity (kill of spidermites)” value in series [5] (bean leaf disks infested by all stages of Tetranychus urticae (OP-resistant), sprayed, result in words) is on record as “good activity”.

In the case of `CC(C)C1=NN(C(=S)NCCN2CCOCC2)C(O)(C(F)(F)F)C1` (stereo not shown) [Example 43], in the series with Meloidogyne incognita, the “nematicidal action (formation of galls)” value is listed as “good activity” and the pest or weed control at 20 ppm came out at 100%. This compound came in with a chromatographic logP in series [1] of 1.45.

With `CC1=NN(C(=S)Nc2c(F)cccc2F)C(O)(C(F)(F)F)C1` (stereo not shown) [Example 100], in the series with Meloidogyne incognita, the “nematicidal action (formation of galls)” value was “good activity” and the pest or weed control at 20 ppm was 90%. This compound returned a chromatographic logP in series [1] of 2.91.

Turning to `CC1=NN(C(=O)Nc2ccc(Cl)cc2)C(O)(C(F)(F)F)C1` (stereo not shown) [Example 114], in the series on Meloidogyne incognita, the “nematicidal action (formation of galls)” value was “good activity” and the pest or weed control at 20 ppm came to 90%. In addition, in series [1], the chromatographic logP came out at 3.

Take `CC1=NN(C(=O)Nc2ccc(C(F)(F)F)cc2)C(O)(C(F)(F)F)C1` (stereo not shown) [Example 115]: in the series with Meloidogyne incognita, the “nematicidal action (formation of galls)” value is on record as “good activity” and the pest or weed control at 20 ppm was 100%. The chromatographic logP in series [1] was found to be 3.26.

`CC1=NN(C(=S)NCc2ccc(Cl)cc2)C(O)(C(F)(F)F)C1` (stereo not shown) [Example 123]: in the series on Meloidogyne incognita, the “nematicidal action (formation of galls)” value was “good activity” and the pest or weed control at 20 ppm worked out at 90%.
